The source of these data is patent US20260376293A1, “METHODS FOR STUDYING GPR158 PHARMACOLOGY AND IDENTIFICATION OF ITS LIGANDS” (UNIVERSITY OF FLORIDA RESEARCH FOUNDATION, INCORPORATED, priority 2022, published 2026).

This experiment concerns the target T1, GPR158 (Homo sapiens, UniProt Q5T848).
T1 construct: GPR158 AC2 (1-775) was expressed and purified; Flag; made in house; host or cells: HEK293 GnTI- (BacMam virus)
T1 sequence (Q5T848 24-775): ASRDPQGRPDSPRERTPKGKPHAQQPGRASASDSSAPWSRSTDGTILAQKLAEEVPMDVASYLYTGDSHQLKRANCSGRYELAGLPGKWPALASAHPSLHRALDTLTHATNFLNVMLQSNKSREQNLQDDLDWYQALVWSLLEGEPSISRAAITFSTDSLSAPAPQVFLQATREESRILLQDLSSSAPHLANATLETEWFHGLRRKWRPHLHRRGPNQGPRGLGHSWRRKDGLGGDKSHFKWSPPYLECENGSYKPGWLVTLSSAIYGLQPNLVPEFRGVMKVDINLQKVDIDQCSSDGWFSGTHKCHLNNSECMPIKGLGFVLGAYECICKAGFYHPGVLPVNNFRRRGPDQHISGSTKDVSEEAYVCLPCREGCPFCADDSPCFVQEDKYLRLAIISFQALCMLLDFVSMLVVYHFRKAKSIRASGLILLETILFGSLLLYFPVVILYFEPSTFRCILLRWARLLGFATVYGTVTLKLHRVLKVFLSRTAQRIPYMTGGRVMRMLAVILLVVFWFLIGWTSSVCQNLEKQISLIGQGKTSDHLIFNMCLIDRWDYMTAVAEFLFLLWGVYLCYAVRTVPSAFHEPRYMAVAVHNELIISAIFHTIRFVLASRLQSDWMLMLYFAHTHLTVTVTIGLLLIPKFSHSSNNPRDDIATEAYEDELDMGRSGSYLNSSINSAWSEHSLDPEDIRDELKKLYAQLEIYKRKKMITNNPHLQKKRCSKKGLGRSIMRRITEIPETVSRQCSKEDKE
Nature of the experiment: Isothermal Titration calorimetry (ITC) with purified GPR158. Particulars: purified GPR158-AC2, 23 °C. It is filed as binding. As for the experimental part: FIGS. 9A-9H. Direct interaction of glycine with GPR158 A) Schematics of assay design for detecting glycine binding to GPR158 by flow cytometry. Cells transfected with GPR158 are incubated with FITC-glycine and fluorescence labeling of cells is detected by flow cytometry. B) Representative flow cytometry histogram showing distribution of cellular populations after sorting. C) Quantification of FITC-glycine binding detected in flow cytometry binding experiments. The median of fluorescence (MFI) is quantified and plotted. Error bars are s.e.m. values, N=3, **p<0.01, ****p<0.0001, two-way ANOVA. D) Schematics of the radioligand binding assay. E) Quantification of ^3H-glycine binding to membrane expressing GPR158. Count Per minute (CPM) are measured and plotted. Data shown mean of 4 independent experiments error bars are s.e.m. values, n=4. […] Data shown mean of 4 independent experiments error bars are s.e.m. values, n=4. G) Schematics of the assay design detecting glycine binding to GPR158 by Isothermal Titration calorimetry (ITC) with purified protein. H) Representative ITC binding profile showing glycine binding to GPR158. Control (thick line), GPR158 (thin line) I) Quantification of binding determined by fitting the integrated isotherm to an independent binding model.
FIGS. 10A-10D. Binding of Glycine to GPR158 in ITC experiments. […]

Read-outs that look alike come from different tables or passages of the source.

As to `NCC(=O)O` [glycine], the Kd (commonly a measure of binding affinity in units of concentration) runs as follows: (mean of 4 experimental runs, independent binding model, read-out: KD (ITC, mean)) 7.76 ± 3.66 µM; (range across experiments, read-out: binding constants (KD) across experiments) 2 to 16 µM.
